From PMC12475274, “Harnessing indole scaffolds to identify small-molecule IRE1α inhibitors modulating XBP1 mRNA splicing” (Nature Communications, 2025)

Experiments:
p-IRE1α dimerization = molecular target: T1, p-IRE1α dimerization (Homo sapiens, UniProt O75460); assay: SDS-PAGE gel-based crosslinking assay
T1 construct: Human IRE1α kinase and RNase domain (residues 547–977) was subcloned into pLIB plasmid; His tag (with TEV cleavage site) (N, cleaved yes); made in house; host or cells: Sf9 insect cells, baculovirus (Bac-to-Bac)
Excerpt: sustained inhibition effect.”
Fig. R1. (A) Gel-based cleavage assay using the same condition as FRET assay. (B) Fig.4g of current manuscript, IA107 binding affinity towards p-IRE1α in MST assay.
-Using Refeyn mass photometry of cross-linked IRE1α complexes, the authors observe that […]
However, this finding appears inconsistent with their crystallographic data showing separated RNase domains in dimeric IRE1. Since both kinase and RNase domain interactions contribute to the IRE1 dimer interface, one would expect at least some reduction in dimerization levels. It is also a bit worrying that the authors observe that one of the control compounds tested (G1749) also blocks dimerization/oligomerization in their assay (Extended Data Fig. 6d and 6e), as this compound was found not to affect the monomer/dimer equilibrium of IRE1 in PMID: 33318494.
We appreciate the Reviewer’s comments regarding the dimerization experiments. Our crystal […]
remain in the same dimer interaction interface as the apo p-IRE1α dimer. […]
observe dimerization inhibition by IA107 in the mass photometry assay nor SDS-PAGE gel-based crosslinking assay (Fig. R2A). […]
Fig. R2. […] Analyzed using the PDBePISA web server (PMID: 17681537). […]
inhibits IRE1α's RNase activity (measured as spliced XBP1 levels) in cells through engagement of IRE1α. […]

MDA-MB-468 cells = assay: Cell viability assay (CCK-8), MDA-MB-468; assay type: cell-based, human; details: MDA-MB-468; for inhibition at 50 µM: Homo sapiens, read-out: antiproliferation, inhibition at highest tested concentration
Description: (§1) Cells were collected and seeded into 96-well plates at a density of 2000–4000 cells per well and cultured overnight to allow cells to adhere. After adherence, cells were treated with the indicated compounds for 72 h. Then 20 μL CCK-8 solution (Vazyme, A311) was added into each well and incubated at 37 °C for 2–4 h. Absorbance was detected at a wavelength of 450 nm using a TECAN plate reader. Cell viability was calculated with the equation: Cell viability (%) = 100(Absorbance of treated cell - Absorbance of Blank control)/ (Absorbance of DMSO-treated cells - Absorbance of Blank control); Blank control: medium and CCK-8 solution, no cells.

HT-29 cells = assay: Cell viability assay (CCK-8), HT-29; assay type: cell-based, human; details: HT-29; for inhibition at 50 µM: Homo sapiens, read-out: antiproliferation, inhibition at highest tested concentration
Description: as §1

GSG2 (Haspin) = GSG2 (Haspin) (Homo sapiens, UniProt Q8TF76); assay: Kinase profiling (SelectScreen), Adapta; assay type: biochemical
Description: Kinase profiling was conducted by the SelectScreen Kinase Profiling Services (Thermo Fisher), using Z′-LYTE, Adapta, or LanthaScreen Eu Kinase Binding Assay for different kinases. The kinome phylogenetic tree was generated using the KinMap web portal.

A549 cells = assay: Cell viability assay (CCK-8), A549; assay type: cell-based, human; details: A549; for inhibition at 50 µM: Homo sapiens, read-out: antiproliferation, inhibition at highest tested concentration
Description: as §1

HCT 116 cells = assay: Cell viability assay (CCK-8), HCT 116; assay type: cell-based, human; details: HCT 116; for inhibition at 50 µM: Homo sapiens, read-out: antiproliferation, inhibition at highest tested concentration
Description: as §1

[1] = tested on: XBP1s protein in A549 cells; assay: Western blot of XBP1s protein level, A549; assay type: cell-based, human; details: 2 h compound, then 1 μg/mL tunicamycin 4 h
Description: (§2) A549 cells and MDA-MB-231 Cells were harvested and seeded into 6-well plates with a density of 8 × 10^5 cells per well and cultured overnight. […]. Protein concentrations were measured using a BCA protein assay kit (Thermo Scientific, 23227) and all samples were diluted to the same protein concentration. Each sample with 40 μg of total protein was loaded onto a 4–15% MP stain-free gel (Bio-Rad, 4568085) and separated in tris-glycine-SDS running buffer. The proteins were transferred onto a 0.45 μm PVDF membrane (Bio-Rad, 1704274) using the Trans-Blot Turbo Transfer System with the preprogrammed standard SD protocol (up to 1.0 A; 25 V; 30 min). Membranes were blocked with 5% skim milk (Roth, T145.2) in PBST buffer, then incubated with primary antibody IRE1α (Cell Signaling Technology, #3294 s, 1:1000), XBP1s (Cell Signaling Technology, #12782 s, 1:1000) GAPDH (Proteintech, 10494-1-AP, 1:6000) overnight at 4 °C with shaking. After incubation, membranes were washed with PBST and incubated with the Goat Anti-Rabbit (Proteintech, SA00001-2, 1:6000) antibody at room temperature for 1 h. After washing with PBST, the membranes were visualized using Amersham ECL Prime Western Blotting Detection Kit (Cytiva, RPN2232) and imaged with a ChemiDoc MP imaging system (Bio-Rad).

[2] = tested on: XBP1s protein in MDA-MB-231 cells; assay: Western blot of XBP1s protein level, MDA-MB-231; assay type: cell-based, human
Description: as §2

T1 sequence (O75460 547-977): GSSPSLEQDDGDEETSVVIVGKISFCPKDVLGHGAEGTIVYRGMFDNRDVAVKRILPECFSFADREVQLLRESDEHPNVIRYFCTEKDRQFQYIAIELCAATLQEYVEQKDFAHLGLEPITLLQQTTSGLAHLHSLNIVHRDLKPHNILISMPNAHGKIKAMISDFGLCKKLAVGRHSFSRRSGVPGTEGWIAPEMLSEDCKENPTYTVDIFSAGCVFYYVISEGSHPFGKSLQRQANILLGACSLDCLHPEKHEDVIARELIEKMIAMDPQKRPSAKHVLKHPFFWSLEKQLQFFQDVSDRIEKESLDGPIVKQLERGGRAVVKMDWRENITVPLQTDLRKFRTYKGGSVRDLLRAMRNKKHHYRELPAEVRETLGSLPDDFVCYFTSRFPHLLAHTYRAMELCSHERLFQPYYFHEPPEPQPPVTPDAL
Sequence of GSG2 (Haspin) (Q8TF76 whole entry): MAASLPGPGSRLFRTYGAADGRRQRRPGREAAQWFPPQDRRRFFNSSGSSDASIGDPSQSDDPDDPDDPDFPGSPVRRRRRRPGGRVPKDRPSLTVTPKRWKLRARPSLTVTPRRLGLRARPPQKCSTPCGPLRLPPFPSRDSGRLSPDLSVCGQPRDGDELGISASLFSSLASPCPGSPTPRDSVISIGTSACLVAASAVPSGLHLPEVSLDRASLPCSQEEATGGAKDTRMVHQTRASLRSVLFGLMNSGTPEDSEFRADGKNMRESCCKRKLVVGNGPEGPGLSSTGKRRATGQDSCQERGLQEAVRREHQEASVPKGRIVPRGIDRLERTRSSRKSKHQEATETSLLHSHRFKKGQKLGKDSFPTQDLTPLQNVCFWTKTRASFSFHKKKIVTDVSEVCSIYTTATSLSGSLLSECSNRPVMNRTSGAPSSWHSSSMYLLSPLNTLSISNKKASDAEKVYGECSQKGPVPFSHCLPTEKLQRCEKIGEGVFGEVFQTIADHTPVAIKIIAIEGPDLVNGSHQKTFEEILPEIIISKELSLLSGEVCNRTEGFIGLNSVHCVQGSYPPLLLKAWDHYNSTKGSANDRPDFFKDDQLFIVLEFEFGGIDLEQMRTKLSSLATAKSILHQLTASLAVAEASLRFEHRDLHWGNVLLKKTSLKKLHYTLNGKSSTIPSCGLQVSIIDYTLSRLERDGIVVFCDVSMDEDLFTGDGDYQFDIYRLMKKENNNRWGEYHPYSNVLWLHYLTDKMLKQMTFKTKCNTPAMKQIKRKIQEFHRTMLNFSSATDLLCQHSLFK

How did the “effect on p-IRE1α dimerization” value (p-IRE1α dimerization) turn out when Cc1ccc2c(NS(=O)(=O)c3ccccc3Cl)cccc2c1Oc1ncccc1-c1ccnc(N[C@H]2CCCNC2)n1 [KIRA8] was run?
The value was “inhibited dimerization”.

Which results are given for Cc1c(CCC(=O)O)c2cc(Br)ccc2n1C(=O)c1ccccc1 [IA107]?
inhibition at 50 µM (MDA-MB-468 cells): < 30%; cytotoxicity (MDA-MB-468 cells): did not show cytotoxicity; effect on p-IRE1α dimerization (p-IRE1α dimerization): did not; cytotoxicity (HT-29 cells): did not show cytotoxicity; inhibition at 50 µM (HT-29 cells): < 30%; inhibition at 5 µM (GSG2 (Haspin)): 4%; cytotoxicity (A549 cells): did not show cytotoxicity; inhibition at 50 µM (A549 cells): < 30%; cytotoxicity (HCT 116 cells): did not show cytotoxicity; inhibition at 50 µM (HCT 116 cells): < 30%

Which “effect on ER stress-induced XBP1s protein” value [1] does the source give for CCOC(=O)CCc1c(C)n(C(=O)c2ccccc2)c2ccc(Br)cc12 [IAPD1] here?
The value was “inhibited the XPB1s protein level”.

And the inhibition at 50 µM (MDA-MB-468 cells)?
The inhibition at 50 µM was < 30%.

And the “cytotoxicity” value (MDA-MB-468 cells)?
The value was “did not show cytotoxicity”.

And the “cytotoxicity” value (HT-29 cells)?
Its value is “did not show cytotoxicity”.

What about the inhibition at 50 µM (HT-29 cells) of the same compound?
The inhibition at 50 µM was < 30%.

And the “effect on ER stress-induced XBP1s protein” value [2]?
The value was “inhibited the XPB1s protein level”.

And the “cytotoxicity” value (A549 cells)?
The value was “did not show cytotoxicity”.

And the inhibition at 50 µM (A549 cells)?
The inhibition at 50 µM was < 30%.

What about the “cytotoxicity” value (HCT 116 cells) of the same compound?
Its value is “did not show cytotoxicity”.

What about the inhibition at 50 µM (HCT 116 cells) of the same compound?
The inhibition at 50 µM was < 30%.

What does the source list for CCOC(=O)Nc1cccc2c(Oc3ncccc3-c3ccnc(N[C@H]4CCCNC4)n3)c(C)ccc12 [Compound G1749, reference compound]?
effect on ER stress-induced XBP1s protein [1]: partially inhibited; effect on ER stress-induced XBP1s protein [2]: partially inhibited
